# Results from publication PMC11477294, “In Vitro Profiling of the Antiviral Peptide TAT-I24” (International Journal of Molecular Sciences, 2024).
# pIC50: −log10 of the molar value. Where a SMILES comes first, the peptide text is derived from it.
# Assays:
# DiO-labeled MCMV = assay: Entry of DiO-labeled MCMV (microscopy); type: cell-based, mouse cytomegalovirus; details: 10 µM peptide, NIH/3T3 cells, 120 min post-infection, MOI approximately 5
# Method: DiO labeling was performed by incubation of MCMV (2 × 10^7 pfu) with 5 µL of Vybrant™ DiO Cell-Labeling Solution in 300 µL cell culture medium supplemented with 10% FCS for 20 min at 37 °C. After that, the virus was precipitated overnight at 4 °C by addition of 600 µL autoclaved solution of polyethylene glycol/sodium chloride (30% (w/v) PEG-8000 (Sigma Aldrich, Schnelldorf, Germany), 10.5% NaCl (w/v) in PBS, followed by centrifugation on the next day for one hour at 1600× g at 4 °C. Supernatants were discarded, and the precipitated virus was resuspended in 500 µL cell culture medium supplemented with 10% FCS, aliquoted and stored at −80 °C.
# NIH/3T3 cells were seeded at a density of 2 × 10^4 cells/250 µL per well in ibiTreat 8-well chambers (ibidi, Germany) and allowed to attach overnight at 37 °C. On the next day, cells were treated with peptides and infected with DiO-labeled MCMV corresponding to an MOI of approximately 5 with the aid of centrifugal enhancement, twice at 800× g for 15 min. After 2 h of incubation, cells were washed twice with PBS and fixed with 5% formaldehyde for 1 h at room temperature. Then, cells were stained with DAPI for 15 min, as described above. […]
# [1] = test system: MCMV m123/ie-1 transcript; assay: m123/ie-1 transcript qPCR in MCMV-infected NIH/3T3 cells; type: cell-based, mouse cytomegalovirus; details: MCMV MOI 1, two hours post-infection, duplicate treatments
# Method: NIH/3T3 cells were seeded at a density of 2 × 10^4 cells/250 µL per well in a 48-well plate and allowed to attach overnight at 37 °C. On the next day, cells were treated with peptides at the indicated concentrations and infected with MCMV at an MOI of 1 with the aid of centrifugal enhancement, twice at 800× g for 15 min. Cells were then returned to 37 °C for two hours before cell lysis for further processing. RNA isolation, DNase digestion, cDNA reaction and qPCR were performed, as described previously.
# [2] = test system: MCMV strain delm157-luc rep; type: cell-based, mouse cytomegalovirus; details: luciferase reporter gene expression in NIH/3T3 cells infected with replication-competent MCMV, MOI 0.5, 72 h post-infection; 1:3 dilution series; non-linear regression; n = 9
# Method: NIH/3T3 cells were seeded at a density of 2 × 10^4 cells/100 µL per well in a 96-well plate (Sarstedt, Germany) and allowed to attach overnight. On the next day, cells were treated with a 1:3 dilutions series of peptides and, without further pre-incubation, subsequently infected with the MCMV strain delm157-luc rep. The MCMV stock was prepared and quantified as previously described. The virus (MOI 0.5 for luc assays; for other assays, see the specific descriptions) was adsorbed to cells with the aid of centrifugal enhancement twice at 800× g for 15 min at room temperature and incubated at 37 °C for the indicated times. For the luciferase assays, the infected cells were lysed 72 h post-infection using 20 µL Cell Culture Lysis Reagent (Promega, Mannheim, Germany). From the lysates, 10 µL was transferred to white 96-well plates, and luciferase was recorded using a Luciferase Assay System and a GloMax®-Multi Detection System (Promega, Mannheim, Germany).
# [3] = molecular target: dsDNA (pcDNA3.1 (+) plasmid); assay: DNA binding assay (SYBR Gold fluorescence reduction); details: reduction of fluorescence of SYBR Gold bound to pcDNA3.1 (+) plasmid (100 ng); non-linear regression; n = 8
# Method: DNA-binding of the peptides was analyzed using an assay based on the reduction of the fluorescence of DNA-bound SYBR^TM Gold dye in the presence of peptide. […] The selectivity index (SI), that is, the ratio between CC50 and IC50, was calculated for all peptides tested in HEK293 cells, except for C22del and C22del_cyc, for which the CC50 could not be calculated from the results of the cell viability assay (Table 1, Supplementary Figure S1).
# DNA binding was detected using an assay based on reduction of fluorescence emitted by SYBR^TM Gold (ThermoFisher, Darmstadt, Germany) bound to dsDNA in the presence of peptides using the pcDNA3.1 (+) plasmid (100 ng), as described previously.
# [4] = Peptide stability in PBS or PBS with 10% FCS, read out as antiviral activity; type: in vitro ADME; details: 48 h at 37 °C versus −20 °C, two independent incubations in duplicate
# Method: A baculovirus expressing luciferase under the control of the CMV promoter has been described previously. HEK293 cells were seeded at a density of 2 × 10^4 cells/100 µL per well in 96-well plates (Sarstedt, Germany). On the next day, cells were treated with a 1:3 dilution series of peptides and, without further pre-incubation, subsequently infected with baculovirus–luc at a multiplicity of infection (MOI) of 5. Cells were lysed 24 h post-infection using 20 µL Cell Culture Lysis Reagent (Promega, Mannheim, Germany). From the lysates, 10 µL was transferred to white 96-well plates, and luciferase was recorded using a luciferase assay system and a GloMax®-Multi Detection System (Promega, Mannheim, Germany).
# NIH/3T3 cells were seeded at a density of 2 × 10^4 cells/100 µL per well in a 96-well plate (Sarstedt, Germany) and allowed to attach overnight. On the next day, cells were treated with a 1:3 dilutions series of peptides and, without further pre-incubation, subsequently infected with the MCMV strain delm157-luc rep. The MCMV stock was prepared and quantified as previously described. […] From the lysates, 10 µL was transferred to white 96-well plates, and luciferase was recorded using a Luciferase Assay System and a GloMax®-Multi Detection System (Promega, Mannheim, Germany). […]
# cells = details: not associated with cell toxicity; cited from earlier work
smiles,measurement,setting,value
CC(C)C[C@H](NC(=O)[C@H](CS)NC(=O)[C@H](CCC(N)=O)NC(=O)[C@@H]1CCCN1C(=O)[C@@H]1CCCN1C(=O)[C@H](CCCNC(=N)N)NC(=O)[C@H](CCCNC(=N)N)NC(=O)[C@H](CCCNC(=N)N)NC(=O)[C@H](CCC(N)=O)NC(=O)[C@H](CCCNC(=N)N)NC(=O)[C@H](CCCNC(=N)N)NC(=O)[C@H](CCCCN)NC(=O)[C@H](CCCCN)NC(=O)[C@H](CCCNC(=N)N)NC(=O)CN)C(=O)N[C@@H](C)C(=O)N[C@@H](Cc1ccccc1)C(=O)N[C@@H](Cc1ccc(O)cc1)C(=O)N[C@@H](C)C(=O)N[C@@H](CS)C(=O)N[C@@H](Cc1ccccc1)C(=O)N[C@@H](CS)C(=O)O [TAT-I24] (H-GRKKRRQRRRPPQCLAFYACFC-OH),organization of fluorescent signal of DiO-labeled MCMV in cells,DiO-labeled MCMV,less perinuclear organization and was more dispersed in the whole cytoplasm
same,m123/ie-1 transcript levels relative to infected cells without peptides,[1]; 1 µM peptide,significantly reduced
same,m123/ie-1 transcript levels relative to infected cells without peptides,[1]; 10 µM peptide,significantly reduced
same,pIC50,[2],6.04
same,pIC50,[3],6.00
same,antiviral activity after incubation of peptide with serum (serum stability),"[4]; 20 µg peptide in 50 µL PBS with 10% FCS, read-out baculovirus/HEK293 (24 h) and MCMV/NIH/3T3 (72 h) luciferase",slight reduction in antiviral activity
same,antiviral activity after incubation of peptide without serum,"[4]; 20 µg peptide in 50 µL PBS, read-out baculovirus/HEK293 and MCMV/NIH/3T3 luciferase",curve shaping for both peptides was altered
same,concentration with morphological changes such as cell aggregation,cells,> 10 µM
